According to patent US8623377B2, “Joint-homing peptides and uses thereof” (University of Maryland, Baltimore, priority 2011, dated 2014):

Key:
Format in all cases: cell-based, human
[1] = system: HUVECs attachment to vitronectin; assay: Attachment of HUVECs to vitronectin; conditions: peptide 30-800 μg/mL, 1 h on vitronectin-coated wells
Procedure: HUVECs were first suspended in F-12K medium containing the indicated concentrations of NQR, AK or RGD peptide and then incubated for 1 h in microtiter wells coated with vitronectin. The number of cells that attached to vitronectin was quantified. The results of three independent experiments are shown. *P<0.05, compared with the baseline control.
The attachment of HUVECs to vitrnectin was quantified as described (37, 38). Microtiter wells were coated overnight at 4° C. with 2 μg/mL of vitronectin (BD Biosciences). These wells were then blocked for 1 h at 37° C. with 10 mg/mL of BSA (Sigma-Aldrich). In parallel, HUVECs (1.5×10^5 cells/mL) suspended in F-12K medium containing 10% FBS were incubated for 15 min at 37° C. with different concentrations (30-800 μg/mL) of NQR, ADK, or RGD peptide. Thereafter, this cell suspension 100 μL/well) was added to the vitronectin-coated wells, followed by incubation at 37° C. for 1 h. After washing, the number of attached cells was determined using crystal violet (Fisher Scientific).

LPS-stimulated HUVECs = assay: Internalization of FITC-labeled peptide in LPS-stimulated HUVECs
Procedure: FIG. 2A: Binding of specific phage encoding the peptide NQR or ADK to the vascular endothelium was visualized by immunohistochemical examination of the hind paw section of the rthritic rats using the anti-T7 phage antibody. The binding of phage was tested in the presence or absence of the corresponding synthetic peptide. BV, blood vessel, L, lumen. FIG. 2B: Arthritic rats were injected with specific phage (ADK phage, left; NQR phage, center; or RGD phage, right) in the presence or absence of the corresponding synthetic peptide, and the titer of the phage recovered from the synovial tissue was assessed. *P<0.01. FIG. 2C: CD31-expressing endothelial cells were isolated from arthritic rat joints (upper) or the liver (lower) and stained with DAPI (blue), FITC-labeled peptide NQR (green), or Alexa Fluor 594-labeled anti-rat CD31 antibody (red). Also shown is the staining overlay (merge) of green and red (yellow). The inset is an enlarged view of a single cell; original magnification, 20×. FIG. 2D: LPS-stimulated HUVECs were stained with DAPI and FITC-labeled peptide NQR and observed under a fluorescence microscope, original magnification, 100×.

Akt = assay: VEGF-induced signaling in HUVECs, Western blot p-Akt; conditions: peptide 10, 50, 100 μg/mL 1 h, then VEGF 10 ng/mL 20 min
Description: FIG. 6A: HUVECs were stimulated with VEGF and treated with the indicated concentrations of peptides. Phosphorylated ERK1/2 and Akt, as well as total ERK1/2 and Akt, were detected by Western blot analysis. FIG. 6B: Thereafter, p-ERK1/2 and p-Akt were quantified by densitometry, normalized to total ERK1/2 (left) and Akt (right), respectively, and compared with cells in serum-free medium. The results of a representative experiment from a set of three independent experiments are shown. *P<0.05, compared with the positive control.
HUVECs were grown in F-12K medium in the presence of endothelial cell growth supplement (ECGS) (BD Biosciences) and 15% FBS. Confluent cells were starved in basal medium (without ECGS and FBS) for 6 h. Then the cells were pretreated for 1 h with different concentrations (10, 50, and 100 μg/mL) of a peptide (NQR, ADK, or RGD) in fresh basal medium, followed by treatment with VEGF (10 ng/mL) for another 20 min. The conditional medium was discarded, and the cells were lysed using a lysis buffer containing protease inhibitors and phosphatase inhibitors. The cell lysate was then centrifuged, and the resulting supernatant was used for analysis of signaling molecules using specific antibodies to human pERK1/2, ERK1/2, pAkt, Akt, and GAPDH (Cell Signaling Technology) by Western blot analysis. The intensity of the bands in the gel was quantified by densitometry. The levels of p-ERK1/2 and p-Akt were normalized to total ERK1/2 and Akt, respectively, and compared with cells in serum-free medium.

HUVECs = assay: Endothelial tube (tubule) formation on Matrigel with VEGF; conditions: VEGF 10 ng/mL, peptide 0-100 μg/mL
Procedure: FIG. 4A: Draining lymph node leukocytes from arthritic rats were dye-tagged with PKH67 and injected i.v. into arthritic rats. One group of rats was left untreated, and the other groups were treated with ADK or NQR peptide. After 24 hours, the synovium-infiltrating cells (SICs) were harvested from the joints, subjected to cytospin, and analyzed by fluorescence microscopy (left). In parallel, another set of synovium-infiltrating cells were stained with PE-labeled anti-CD3 or anti-CD 11b/c+ antibody and analyzed by flow cytometry (right). FIG. 4B: HUVECs were cultured on Matrigel-coated wells for 24 hours in the presence of VEGF (10 ng/mL) and various concentrations (0-100 μg/mL) of NQR (left), ADK (center), and RGD (right) peptides. The branches of vessel-like tubes were counted. A reprensentative set of results is shown. *P<0.05, compared with the VEGF-alone control.
HUVECs (1×10^4) were cultured in 80 μL/well of growth factor-reduced Matrigel (BD Biosciences) in a 96-well plate in 100 μL/well of F-12K medium (with no supplements). These cells were then treated for 20 h with VEGF (R&D Systems) in the presence or absence of different concentrations of peptides (NQR, ADK, or RGD). Tubule formation was observed under a microscope, quantitated, and photographed.

Sequence: CLDNQRPKC (Synthetic peptide homing to joint in an animal) [NQR peptide, joint-homing phage-derived synthetic peptide]
- effect on attachment of HUVECs to vitronectin [1]: Neither peptide had any effect
- cellular uptake of peptide (LPS-stimulated HUVECs; FITC-labeled peptide, LPS-stimulated HUVECs): transported across the cell membrane into the cytoplasm and the nucleus
- time by which most peptide accumulated in the perinuclear area (LPS-stimulated HUVECs; after addition to the cells): ≤ 45 min
- effect on VEGF-induced pAkt (Akt): had no effect on pAkt
- effect on endothelial cell tube formation (HUVECs): inhibited tube formation
